Reference: ChEMBL document CHEMBL4616680, “Shedding X-ray Light on the Role of Magnesium in the Activity of Mycobacterium tuberculosis Salicylate Synthase (MbtI) for Drug Design” (J Med Chem, 2020)
pIC50: −log10 of the molar value.

Tested on: MRC5
Assay: Cytotoxicity in human MRC5 cells
Type: cell-based

For `N#Cc1cccc(-c2ccc(C(=O)O)o2)c1`, the pIC50 was < 4.00.
